Molecules are shown by their SMILES.

The target in this experiment is T1, human HIF-PHD2 (Homo sapiens, UniProt Q9GZT9).
T1 construct: FLAG-tagged full length PHD2 expressed in and purified from baculovirus-infected Sf9 cells; FLAG; made in house; host or cells: baculovirus-infected Sf9 cells
T1 sequence (Q9GZT9 whole entry): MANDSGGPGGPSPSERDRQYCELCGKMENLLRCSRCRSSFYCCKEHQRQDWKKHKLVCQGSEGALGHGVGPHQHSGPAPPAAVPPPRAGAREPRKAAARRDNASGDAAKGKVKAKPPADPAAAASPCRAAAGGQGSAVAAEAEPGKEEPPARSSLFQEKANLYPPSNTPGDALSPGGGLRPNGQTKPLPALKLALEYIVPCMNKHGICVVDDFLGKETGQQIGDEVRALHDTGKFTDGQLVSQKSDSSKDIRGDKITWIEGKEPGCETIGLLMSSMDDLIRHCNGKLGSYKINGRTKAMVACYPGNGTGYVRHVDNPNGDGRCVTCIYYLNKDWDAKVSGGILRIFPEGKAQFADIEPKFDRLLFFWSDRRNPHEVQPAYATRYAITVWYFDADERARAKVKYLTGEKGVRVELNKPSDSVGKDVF
Put plainly: HIF-PHD2 inhibition of HIF-1α peptide hydroxylation (time resolved fluorescence). The format is biochemical. The following applies: FLAG-tagged full length PHD2; 0.2 μM 2-oxoglutarate, 0.5 μM HIF-1α peptide. On the procedure:
Select examples of assays that may be used to detect favorable activity are disclosed in the following publications: Oehme, F., et al., Anal. Biochem. 330:74-80 (2004); Hirsilä, M, et al., J. Bio. Chem. 278 (33): 30772-30780 (2005); Hyunju, C., et al., Biochem. Biophys. Res. Comm. 330 275-280 (2005); and Hewitson, K. S., et al., Methods in Enzymology, (Oxygen Biology and Hypoxia); Elsevier Publisher (2007), pg. 25-42 (ISSN: 0076-6879).
To each well of a 384-well plate, 1 μL of test compounds in DMSO (final concentration ranging from 0.3 nM to 10 uM) were added into 20 μl of assay buffer (50 mM Tris pH 7.4/0.01% Tween-20/0.1 mg/ml bovine serum albumin/[…]/1 mM sodium ascorbate/20 μg/ml catalase) containing 0.15 μg/ml FLAG-tagged full length PHD2 expressed in and purified from baculovirus-infected Sf9 cells. After a 5 min preincubation at room temperature, the enzymatic reactions were initiated by the addition of 4 μL of substrates {final concentrations of 0.2 μM 2-oxoglutarate and 0.5 μM HIF-1α peptide biotinyl-DLDLEMLAPYIPMDDDFQL (SEQ ID NO: 1)}. After incubation for 45 minutes at room temperature, the reactions were terminated by the addition of a 25 μL quench/detection mix to a final concentration of 1 mM ortho-phenanthroline, 0.1 mM EDTA, 0.5 nM anti-(His)6 LANCE reagent (Perkin-Elmer Life Sciences), 100 nM AF647-labeled streptavidin (Invitrogen), and 2 μg/ml (His)6-VHL complex {S. Tan Protein Expr. Purif. 21, 224-234 (2001)} and the signals were developed for 30 minutes at room temperature. The ratio of time resolved fluorescence signals at 665 and 620 nm was determined, and percent inhibition was calculated relative to the high control samples (DMSO treated) run in parallel, after background subtraction.
`CC(C)OC(=O)COC(=O)C(C)CNC(=O)c1ncc(C(=O)NC(c2ccccc2)c2ccccc2)c(O)n1` (single isomer, unassigned) [Ex. 30, 2-Isopropoxy-2-oxoethyl 3-(5-(benzhydrylcarbamoyl)-4-hydroxypyrimidine-2-carboxamido)-2-methylpropanoate]: half-maximal inhibition (IC50) required 179 nM. For `CCOC(=O)C(C)(O)CNC(=O)c1ncc(C(=O)NC(c2ccccc2)c2ccccc2)c(O)n1` (single isomer, unassigned) [Example 26, Ethyl 3-(5-(benzhydrylcarbamoyl)-4-hydroxypyrimidine-2-carboxamido)-2-hydroxy-2-methylpropanoate], the IC50 (commonly the concentration that inhibits the measured activity by half) came to 940 nM. In the case of `CCOC(=O)C(C)(O)CNC(=O)c1ncc(C(=O)NC(c2ccccc2)c2ccccc2)c(O)n1` (single isomer, unassigned) [Example 27, Ethyl 3-(5-(benzhydrylcarbamoyl)-4-hydroxypyrimidine-2-carboxamido)-2-hydroxy-2-methylpropanoate], the IC50 stood at 879 nM.

The compound `COC(=O)CCNC(=O)c1ncc(C(=O)NC(c2ccccc2)c2ccccc2)c(O)n1` [Ex. 1, Methyl 3-(5-(benzhydrylcarbamoyl)-4-hydroxypyrimidine-2-carboxamido)propanoate] registered an IC50 of 14.3 nM. `O=C(CCNC(=O)c1ncc(C(=O)NC(c2ccccc2)c2ccccc2)c(O)n1)OCCN1CCOCC1` [Ex. 2, 2-morpholinoethyl 3-(5-(benzhydrylcarbamoyl)-4-hydroxypyrimidine-2-carboxamido)propanoate] had a concentration for half-maximal inhibition (IC50) of 24.9 nM. With `CCOC(=O)C1(CNC(=O)c2ncc(C(=O)NC(c3ccccc3)c3ccccc3)c(O)n2)CC1` [Ex. 3, ethyl 1-((5-(benzhydrylcarbamoyl)-4-hydroxypyrimidine-2-carboxamido)methyl)cyclopropanecarboxylate] the figure was 35.6 nM; with `CCOC(=O)C(C)(O)CNC(=O)c1ncc(C(=O)NC(c2ccccc2)c2ccccc2)c(O)n1` (stereo not drawn) [Ex. 4, ethyl 3-(5-(benzhydrylcarbamoyl)-4-hydroxypyrimidine-2-carboxamido)-2-hydroxy-2-methylpropanoate], 871 nM; with `CCOC(=O)[C@H](O)CNC(=O)c1ncc(C(=O)NC(c2ccccc2)c2ccccc2)c(O)n1` [Ex. 5, (R)-ethyl 3-(5-(benzhydrylcarbamoyl)-4-hydroxypyrimidine-2-carboxamido)-2-hydroxypropanoate], 46.4 nM. As for `CC(=O)OCOC(=O)CCNC(=O)c1ncc(C(=O)NC(c2ccccc2)c2ccccc2)c(O)n1` [Ex. 7, Acetoxymethyl 3-(5-(benzhydrylcarbamoyl)-4-hydroxypyrimidine-2-carboxamido)propanoate], the IC50 worked out at 3.11 nM. This IC50 lies about 15-fold lower than the previous one. For the compound `CC(C)OC(=O)OCOC(=O)CCNC(=O)c1ncc(C(=O)NC(c2ccccc2)c2ccccc2)c(O)n1` [Ex. 8, ((isopropoxycarbonyl)oxy)methyl 3-(5-(benzhydrylcarbamoyl)-4-hydroxypyrimidine-2-carboxamido)propanoate], it took 2.81 nM to reach half-maximal inhibition (IC50).

For `CCOC(=O)OC(C)OC(=O)CCNC(=O)c1ncc(C(=O)NC(c2ccccc2)c2ccccc2)c(O)n1` (stereo not drawn) [Ex. 9, 1-((ethoxycarbonyl)oxy)ethyl 3-(5-(benzhydrylcarbamoyl)-4-hydroxypyrimidine-2-carboxamido)propanoate], half-maximal inhibition (IC50) was put at 6.67 nM. For `CC(C)OC(=O)OC(C)OC(=O)CCNC(=O)c1ncc(C(=O)NC(c2ccccc2)c2ccccc2)c(O)n1` (stereo not drawn) [Ex. 10, 1-((isopropoxycarbonyl)oxy)ethyl 3-(5-(benzhydrylcarbamoyl)-4-hydroxypyrimidine-2-carboxamido)propanoate] the value was 37.2 nM; for `CC(OC(=O)CCNC(=O)c1ncc(C(=O)NC(c2ccccc2)c2ccccc2)c(O)n1)OC(=O)OC1CCCCC1` (stereo not drawn) [Ex. 11, 1-(((cyclohexyloxy)carbonyl)oxy)ethyl 3-(5-(benzhydrylcarbamoyl)-4-hydroxypyrimidine-2-carboxamido)propanoate], 42.1 nM. `CCOC(=O)OCOC(=O)CCNC(=O)c1ncc(C(=O)NC(c2ccccc2)c2ccccc2)c(O)n1` [Ex. 12, ((ethoxycarbonyl)oxy)methyl 3-(5-(benzhydrylcarbamoyl)-4-hydroxypyrimidine-2-carboxamido)propanoate] showed an IC50 of 2.46 nM. This IC50 is about 17-fold lower than that of the compound before. `CN(C)C(=O)COC(=O)CCNC(=O)c1ncc(C(=O)NC(c2ccccc2)c2ccccc2)c(O)n1` [Ex. 13, 2-(Dimethylamino)-2-oxoethyl 3-(5-(benzhydrylcarbamoyl)-4-hydroxypyrimidine-2-carboxamido)propanoate]: half-maximal inhibition (IC50) was put at 159 nM. In turn, `O=C1CCN(C(=O)c2ncc(C(=O)NC(c3ccccc3)c3ccccc3)c(O)n2)CO1` [Ex. 14, N-Benzhydryl-4-hydroxy-2-(6-oxo-1,3-oxazinane-3-carbonyl)pyrimidine-5-carboxamide] displayed an IC50 of 11.2 nM. `O=C(CNC(=O)c1ncc(C(=O)NC(c2ccccc2)c2ccccc2)c(O)n1)Oc1ccc2c(c1)CCC2` [Ex. 15, 2,3-Dihydro-1H-inden-5-yl 2-(5-(benzhydrylcarbamoyl)-4-hydroxypyrimidine-2-carboxamido)acetate]: 11.2 nM corresponded to half-maximal inhibition (IC50). In other words, the double-digit nanomolar range. For `CN(C)C(=O)COC(=O)CNC(=O)c1ncc(C(=O)NC(c2ccccc2)c2ccccc2)c(O)n1` [Ex. 16, 2-(dimethylamino)-2-oxoethyl 2-(5-(benzhydrylcarbamoyl)-4-hydroxypyrimidine-2-carboxamido)acetate], the IC50 is 105 nM. With `O=C1CN(C(=O)c2ncc(C(=O)NC(c3ccccc3)c3ccccc3)c(O)n2)CO1` [Ex. 17, N-Benzhydryl-4-hydroxy-2-(5-oxooxazolidine-3-carbonyl)pyrimidine-5-carboxamide] the figure was 15.1 nM; with `CC(C)OC(=O)OC(C)OC(=O)CNC(=O)c1ncc(C(=O)NC(c2ccccc2)c2ccccc2)c(O)n1` (stereo not drawn) [Ex. 18, 1-((isopropoxycarbonyl)oxy)ethyl 2-(5-(benzhydrylcarbamoyl)-4-hydroxypyrimidine-2-carboxamido)acetate], 43.9 nM; with `CCOC(=O)OC(C)OC(=O)CNC(=O)c1ncc(C(=O)NC(c2ccccc2)c2ccccc2)c(O)n1` (stereo not drawn) [Ex. 19, 1-((ethoxycarbonyl)oxy)ethyl 2-(5-(benzhydrylcarbamoyl)-4-hydroxypyrimidine-2-carboxamido)acetate], 32.2 nM. With `CC(C)OC(=O)OCOC(=O)CNC(=O)c1ncc(C(=O)NC(c2ccccc2)c2ccccc2)c(O)n1` [Ex. 20, ((Isopropoxycarbonyl)oxy)methyl 2-(5-(benzhydrylcarbamoyl)-4-hydroxypyrimidine-2-carboxamido)acetate], the IC50 was determined as 41 nM.

With `CC(C)C(=O)OCOC(=O)CNC(=O)c1ncc(C(=O)NC(c2ccccc2)c2ccccc2)c(O)n1` [Ex. 21, (2-(5-(benzhydrylcarbamoyl)-4-hydroxypyrimidine-2-carboxamido)acetoxy)methyl isobutyrate], the IC50 was determined as 35 nM. Compound `CCOC(=O)OCOC(=O)CNC(=O)c1ncc(C(=O)NC(c2ccccc2)c2ccccc2)c(O)n1` [Ex. 22] yielded an IC50 of 14.7 nM. Compared with the last compound, the IC50 is about 2.4-fold lower. With `CC(OC(=O)[C@H](O)CNC(=O)c1ncc(C(=O)NC(c2ccccc2)c2ccccc2)c(O)n1)C(=O)OCc1ccccc1` (stereo partly drawn) [Ex. 23, (2R)-1-(Benzyloxy)-1-oxopropan-2-yl 3-(5-(benzhydrylcarbamoyl)-4-hydroxypyrimidine-2-carboxamido)-2-hydroxypropanoate] the figure was 11.2 nM; with `CCOC(=O)C(OC(=O)[C@H](O)CNC(=O)c1ncc(C(=O)NC(c2ccccc2)c2ccccc2)c(O)n1)c1ccccc1` (stereo partly drawn) [Ex. 24, (2R)-2-ethoxy-2-oxo-1-phenylethyl 3-(5-(benzhydrylcarbamoyl)-4-hydroxypyrimidine-2-carboxamido)-2-hydroxypropanoate], 326 nM. With `O=C(NC[C@@H](O)C(=O)OC1CCCCC1O)c1ncc(C(=O)NC(c2ccccc2)c2ccccc2)c(O)n1` (stereo partly drawn) [Ex. 25, (2R)-2-Hydroxycyclohexyl 3-(5-(benzhydrylcarbamoyl)-4-hydroxypyrimidine-2-carboxamido)-2-hydroxypropanoate] the figure was 182 nM; with `CC(C)OC(=O)COC(=O)[C@H]1C[C@H](NC(=O)c2ncc(C(=O)NC(c3ccccc3)c3ccccc3)c(O)n2)C1` [Ex. 29, (1R,3R)-2-isopropoxy-2-oxoethyl 3-(5-(benzhydrylcarbamoyl)-4-hydroxypyrimidine-2-carboxamido)cyclobutanecarboxylate], 171 nM; with `CC(C)OC(=O)CCNC(=O)c1ncc(C(=O)NC(c2ccccc2)c2ccccc2)c(O)n1` [Example 6, Isopropyl 3-(5-(benzhydrylcarbamoyl)-4-hydroxypyrimidine-2-carboxamido)propanoate], 15.9 nM. For `O=C(CCNC(=O)c1ncc(C(=O)NC(c2ccccc2)c2ccccc2)c(O)n1)OCc1ccccc1` [Example 28] the value was 24.3 nM.

The values above are taken from patent publication US20170240513A1, “SUBSTITUTED PYRIMIDINES AS INHIBITORS OF HIF PROLYL HYDROXYLASE” (MERCK SHARP & DOHME CORP., priority 2014, published 2017).
